Experimental data published in patent publication US20250073210A1, “Use of Ergothioneine for Enhancing Glutathione Level” (priority 2022, published 2025).
Several values for one entry are separate records, joined by “and”; a condition that tells them apart may be missing. Identical values can stand only once. Like-named read-outs stand apart in the source and are kept apart here.

Key:
[1] = tested on: Nrf2 pathway; assay: Gene expression profile of keratinocytes (mQPA-8-Nrf2 array as a whole); type: cell-based, human; settings: basal, tested at 20 μM
Description: (§1) In the present study, the effects of compound L-Ergothioneine were investigated in normal human epidermal keratinocytes (NHEK) under basal or UV-irradiated conditions. More specifically, the effects of this compound were evaluated using RT-qPCR technology. Extracted mRNA was analyzed using a PCR array (“mQPA-8-Nrf2”) for the analysis of 8 target genes (including 1 housekeeping gene) selected for their role in Nrf2 pathway. Prior to this assay, a preliminary cytotoxicity assay was performed on compound L-Ergothioneine and Resveratrol (reference in basal condition) using a standard WST-8 reduction assay, in order to determine the concentrations to be tested in this study.
(§2) Cell type: Normal human epidermal keratinocytes (NHEK) used at the 3rd passage. Culture conditions: 37° C., 5% CO2. Culture medium: Keratinocyte-SFM optimized for the assay, supplemented with Epidermal Growth Factor Pituitary extract. Assay medium: Keratinocyte-SFM optimized for the assay. Test compound: L-Ergothioneine in ultrapure water. Test concentrations: 0.5, 3 and 30 μM. Reference: Resveratrol. Test concentration: 20 μM.
(§3) Keratinocytes were seeded in 24-well plates and cultured for 24 hours in culture medium and in assay medium for a further 24 hours. The medium was then replaced by assay medium containing or not (control) the compound or Resveratrol and cells were pre-incubated for 24 hours.
(§4) After pre-incubation, the medium was then removed and replaced by a PBS solution. For basal conditions, the plate was kept in the dark during the irradiation time. For irradiated conditions, the cells were irradiated with UVB−275 mJ/cm^2 (+UVA−2 J/cm^2) using a SOL500 Sun Simulator equipped with an H2 filter (Dr. Hönle, AG). After irradiation time, the treatments were renewed, and the cells were incubated for 24 hours. All experimental conditions were performed in n=3. At the end of incubation, the cells were washed in phosphate buffered saline (PBS) solution and immediately frozen at −80° C.
(§5) The expression of markers was analyzed using RT-qPCR method on total RNA extracted from the cell monolayers of each experimental condition (before RNA extraction, the replicates of the same experimental condition were pooled). The analysis of transcripts was performed in n=2 using a PCR array dedicated to research and adapted to ‘screening’ format and targeting 8 genes selected for their role in Nrf2 pathway.

[2] = tested on: HMOX1; assay: RT-qPCR PCR array mQPA-8-Nrf2, HMOX1 expression in NHEK; type: cell-based, human; settings: basal conditions, 20 μM
Description: as §1, §2, §3, §4, §5
(§6) Total RNA was extracted from each sample using TriPure Isolation Reagent® according to the supplier's instructions. The amount and quality of RNA were evaluated using capillary electrophoresis (Bioanalyzer 2100, Agilent technologies). The complementary DNA (cDNA) was synthetized by reverse transcription of total RNA in presence of oligo(dT) and «Transcriptor Reverse Transcriptase» (Roche Molecular System Inc.). The cDNA quantities were then adjusted before PCR.
(§7) The PCR (Polymerase Chain Reaction) were performed using the «LightCycler®» system (Roche Molecular System Inc.) according to the supplier's instructions. The reaction mix (10 μl final) was prepared as follows: 2.5 μl of cDNA; primers (forward and reverse); reagent mix (Roche) containing taq DNA polymerase, SYBR Green I and MgCl2.
(§8) The incorporation of fluorescence in amplified DNA was continuously measured during the PCR cycles. […] The value selected for RE calculations is the “output point” (Ct) of the fluorescence curve. For a considered marker, the highest is the cycle number; the lowest is the mRNA quantity. The RE value was calculated with the formula: (½^number of cycles)×10^6. The PCR array used in the present study included 1 reference gene (RPS28).

[3] = tested on: GCLC; assay: RT-qPCR PCR array mQPA-8-Nrf2, GCLC expression in NHEK; type: cell-based, human; settings: basal conditions, 20 μM
Description: as §1, §2, §3, §4, §5, §6, §7, §8

[4] = tested on: NQO1; assay: RT-qPCR PCR array mQPA-8-Nrf2, NQO1 expression in NHEK; type: cell-based, human; settings: basal conditions, 20 μM
Description: as §1, §2, §3, §4, §5, §6, §7, §8

[5] = tested on: RPS28; assay: RT-qPCR PCR array mQPA-8-Nrf2, housekeeping gene RPS28; type: cell-based, human; settings: basal conditions, 20 μM
Description: as §1, §2, §3, §4, §5, §6, §7, §8

[6] = tested on: NHEK; assay: Morphological observation of cells at the end of the culture, irradiated condition; type: cell-based, human
Description: as §3, §4

[7] = Preliminary cytotoxicity assay (WST-8 reduction, viability and morphological observations); type: cell-based, human; settings: human, normal human epidermal keratinocytes (NHEK)
Description: as §1, §2
(§9) Cell type: NHEK in assay medium. Incubation time: 24 hours.
(§10) After treatment, the cells were incubated with WST-8 (highly water-soluble tetrazolium salt) reduced in a water-soluble orange colored product (formazan) by succinate dehydrogenase (mitochondrial enzyme). This transformation is proportional to the number of living cells and their metabolic activity. The optical density (OD) of the extracts at 450 nm was recorded with a spectrometer (VERSAmax, Molecular Devices).

[8] = tested on: normal human epidermal keratinocytes (NHEK); assay: as above; type: cell-based; settings: 24 hours; for Viability (%): single replicates
Description: as §1, §2, §9, §10

[9] = tested on: MT1G; assay: RT-qPCR PCR array mQPA-8-Nrf2, MT1G expression in NHEK; type: cell-based, human; settings: basal conditions, 20 μM
Description: as §1, §2, §3, §4, §5, §6, §7, §8

[10] = tested on: TXNRD1; assay: RT-qPCR PCR array mQPA-8-Nrf2, TXNRD1 expression in NHEK; type: cell-based, human; settings: basal conditions, 20 μM
Description: as §1, §2, §3, §4, §5, §6, §7, §8

[11] = tested on: GCLM; assay: RT-qPCR PCR array mQPA-8-Nrf2, GCLM expression in NHEK; type: cell-based, human; settings: basal conditions, 20 μM
Description: as §1, §2, §3, §4, §5, §6, §7, §8

[12] = tested on: TXN; assay: RT-qPCR PCR array mQPA-8-Nrf2, TXN expression in NHEK; type: cell-based, human; settings: basal conditions, 20 μM
Description: as §1, §2, §3, §4, §5, §6, §7, §8

[13] = 24 hours of incubation, read-out: Viability Mean (%)
[14] = single replicates, 24 hours, read-out: Viability (%)

## Oc1ccc(C=Cc2cc(O)cc(O)c2)cc1 [Resveratrol]
[1]
  Expression of genes involved in oxidative and cellular stress response: stimulation of the expression of all genes (except MT1G)
[2]
  HMOX1 % Control RPS28: 451 % Control
[3]
  GCLC % Control RPS28: 554 % Control
[4]
  NQO1 % Control RPS28: 1468 % Control
[5]
  RPS28 % Control RPS28: 100 % Control
[6]
  Viability of NHEK under irradiated condition: strongly impacted
[7]; [13]
  viability at 24 h, 0.247 µM: 99%
  viability at 24 h, 0.741 µM: 101%
  viability at 24 h, 2.2 µM: 106%
  viability at 24 h, 6.7 µM: 106%
  viability at 24 h, 20 µM: 93%
  viability at 24 h, 60 µM: 65%
  viability at 24 h, 180 µM: 31%
  viability at 24 h, 540 µM: 8%
[7]; [14]
  viability at 24 h, 0.247 µM: 101%
  viability at 24 h, 0.741 µM: 102%
  viability at 24 h, 2.2 µM: 109%
  viability at 24 h, 6.7 µM: 109%
  viability at 24 h, 20 µM: 97%
  viability at 24 h, 60 µM: 65%
  viability at 24 h, 180 µM: 32%
  viability at 24 h, 540 µM: 8%
[8]; 0.247 μM
  Morphological observations: +
  Viability (%): 98%
[8]; 0.741 μM
  Morphological observations: +
  Viability (%): 100%
[8]; 2.2 μM
  Morphological observations: +
  Viability (%): 105%
[8]; 6.7 μM
  Morphological observations: +
  Viability (%): 108%
[8]; 20 μM
  Morphological observations: +
  Viability (%): 88%
[8]; 540 μM
  Morphological observations: −, *
[8]; 60 μM
  Viability (%): 67% and 64%
[8]; 180 μM
  Viability (%): 29%
[9]
  MT1G % Control RPS28: 79 % Control
[10]
  TXNRD1 % Control RPS28: 492 % Control
[11]
  GCLM % Control RPS28: 736 % Control
[12]
  TXN % Control RPS28: 345 % Control
